Experimental findings from patent publication US20080027031A1, “Retinoids and Related Compounds for the Treatment of Neuroinflammatory Conditions, Diseases and Disorders” (KineMed, Inc., priority 2006, published 2008) are described below.

Test [1] has as its system microglia. In words: Microglial proliferation in the EAE model of multiple sclerosis (2H2O labeling). The format is in vivo, mouse. The settings on record: female C57BL/6 mice, MOG(35-55) immunization; isotretinoin 30 mg/kg/day i.p.; 7 days 2H2O labeling. As for the experimental part:
FIG. 3 depicts the inhibition of Microglial Proliferation in the experimental autoimmune encephalomyelitis (EAE) model of neuroinflammation. Female c57bl/6 mice were labeled with ^2H2O for 7 days and received either sham or EAE immunizations. EAE was induced by subcutaneous injection of 100 μg synthetic MOG(35-55) peptide emulsified in 0.1 ml complete Freund's adjuvant on day 0. Pertussis toxin (400 ng) was injected intravenously on days 0 and 2. Minocycline (45 mg/kg, i.p.) was dissolved in saline and injected twice a day for the first 3 days, and once a day for the rest of the study. Accutane (30 mg/kg, i.p.) was dissolved in DMSO and injected once a day for the duration of the study. Data represent mean±SD of 5 animals per group. * Indicates significant difference (p<0.0001) between sham and EAE groups treated with vehicle, # indicates significant difference (p<0.0001) between vehicle and drug treated EAE groups. […]
Analysis of cell turnover: GC/MS analysis was used to measure ^2H incorporation from ^2H2O into the deoxyribose moiety of purine deoxyribonucleotides during de novo DNA synthesis. Genomic DNA from microglia was isolated using a DNEasy tissue kit (Qiagen, Valencia, Calif.), and processed and analyzed by GC/MS. […]

Test [2] concerns microglia. The settings on record: for LPS-induced microglial proliferation: female C57BL/6 mice, LPS 1 mg/kg i.p. days 1, 3, 5, isotretinoin 40 mg/kg i.p. daily for 7 days, p<0.0001 vs LPS-treated animals.
Procedure: Female c57bl/6 mice were labeled with ^2H2O for 7 days and injected with LPS (1 mg/kg, i.p.) on days 1, 3 and 5. Accutane (40 mg/kg, i.p.) was administered daily for the duration of the study. […] LPS (1 mg/kg) was given on days 1, 3, and 5 of treatment. Isotretinoin (40 mg/kg/day) and 8% ^2H2O label were given for 7 days commencing on Day 1.
Mice: All animal studies were carried out according to NIH guidelines for the care and use of laboratory animals and received prior approval by the KineMed internal animal care and use committee. 9-10 week old female C57/Bl6 mice (Taconic, Oxnard, Calif.) were housed in a climate controlled environment with a 12 hour light/dark cycle and were fed standard rodent chow and water ad libitum. For heavy water labeling, animals received a priming IP bolus of 35 ml/kg 0.9% NaCl in 99.9% ^2H2O and were maintained on 8% ^2H2O in drinking water until sacrifice.
To induce neuroinflammation, C57/Bl6 mice received 1 mg/kg E. coli LPS (L4391, Sigma Chemical, St Louis, Mo.; serotype 0111:B4; stock of 0.2 mgs/ml in PBS) IP on days 1, 3, and 5 of ^2H2O labeling and were sacrificed the morning of day 8. In order to minimize dilution of body water ^2H enrichment in animals due to the volume of injections, 5% ^2H2O solution was used as the vehicle for LPS. Isotretinoin (Sigma) was dissolved in DMSO and administered IP daily at 40 mg/kg, drug treatment was maintained throughout the labeling period.
Isolation and characterization of microglia: Anesthetized mice were transcardially perfused with ice-cold PBS (30 ml). Brains (without olfactory bulbs) were removed and kept in ice-cold PBS until processing. Tissue was passed once through a 1 mm mesh, and agitated in digestion buffer (12.5 ml of 150 mM NaCl, 5 mM KCl, 10 mM NaHCO3, 0.5 mM EDTA, 15 mM HEPES, 5 mM D-glucose, containing 0.5 mg/ml DNAse I [Roche] and 2.5 mg/ml trypsin [Sigma]) in a baffle flask for 25 minutes at 37° C. Trypsin was inactivated by the addition of 6.25 ml of media (1:1 Hams F10:DMEM, 10% FBS, 100,000 units/l penicillin G, 50 mg/l streptomycin sulfate, 2 mM L-glutamine). […]
In test [3] the test system is EAE mice. In words: Clinical scores for EAE symptoms in EAE induced by MOG peptide. The format is in vivo, mouse.
Procedure: Female C57BL/6 mice were immunized with MOG35-55 (EAE mice). All mice were labeled with 8% 2H2O for 1 week and received daily treatment with either vehicle or isotretinoin (10 mg/kg/day, ip). […] Data represent mean±SEM of 8 mice per group.
EAE was induced by subcutaneous injection of 100 μg synthetic MOG(35-55) peptide (QCB, Hopkinton, Mass.), emulsified in 0.1 ml complete Freund's adjuvant (CFA; incomplete Freund's adjuvant containing 4 mg/ml heat-killed M. tuberculosis H37Ra; both from Difco/Becton Dickinson), on day 0. Pertussis toxin (400 ng; List Biological) was injected intravenously on days 0 and 2. Sham-immunized animals were injected with CFA and PBS. Labeling with ^2H2O and treatment with isotretinoin (30 mg/kg/day) was initiated on the day of immunization, drug t.
Accordingly, the effect of isotretinoin was assessed on clinical symptoms of EAE during chronic treatment.

Where two headings read alike, the source gives them in different places.

With `CC1=C(/C=C/C(C)=C/C=C/C(C)=C\C(=O)O)C(C)(C)CCC1` [isotretinoin, 13-cis-retinoic acid], the “microglial proliferation in the EAE model” value in test [1] is “dramatically inhibited”. Moreover, the LPS-induced microglial proliferation result is given as “dramatically inhibited” in test [2] and “Inhibits Microglial Proliferation” in test [2] (listed as isotrentinoin). Moreover, the “suppression of proliferation of brain microglial cells under conditions of microglial stimulation” value in test [2] (overview statement, compared with clinically established inhibitors of neuroinflammation, including minocycline and glucocorticoids) is “as potent”. Besides, the “delay of onset of clinical symptoms of EAE” value in test [3] (MOG35-55 immunized mice, isotretinoin 10 mg/kg/day ip from the day before immunization, untreated onset 14 days PI) is given as 1 week. Further, the “severity of clinical symptoms (clinical score) of EAE” value in test [3] (between day 18 and day 25 PI vs vehicle-treated EAE mice, p<0.05, isotretinoin 10 mg/kg/day ip) is “reduced the severity of clinical symptoms significantly”.
